# Measured values published in patent publication US5489612A, “Calixarene chloride-channel blockers” (The University of Alabama at Birmingham Research Foundation, priority 1994, dated 1996).
# pKi: −log10 of the molar value. Read-outs that look alike come from different tables or passages of the source.
# Tested on: colonic secretory chloride channel
# Assay: Single chloride channels from rat colonic enterocyte plasma membrane vesicles incorporated into planar lipid bilayers; calixarene added to the cis (outer membrane) side
# Assay type: biochemical
# Conditions: for MAXIMUM BLOCK PERIODS (block of channel): UPTO 100 μM; for duration of the block periods: increases with size n of p-sulfonatocalix[n]arene; for MAXIMUM BLOCK PERIODS: single channel in PE:PS 7:3 planar bilayer
# Procedure: In accordance with the methodology of Reinhardt et al., "Properties of an Anion-selective Channel from Rat Colonic Enterocyte Plasma Membranes Reconstituted into Planar Phospholipid Bilayers", J. Membrane Biol. 95: 47-54, 1987, calixarene derivatives were tested on single chloride channels incorporated into planar lipid bilayers. Plasma membrane vesicles derived from rat colonic enterocytes were used as a source of chloride channels. Properties of the colonic secretory chloride channel include one dominant open-state conductance, an outwardly rectified current-voltage relation with a zero voltage slope conductance of 50 pS in 150 mM Cl, a Cl to Na selectivity of at least 10:1, and a halide selectivity of I>Br>CI>F. Patch-clamp studies of several chloride secreting epithelia have identified an apical membrane chloride channel with identical biophysical properties. This channel is activated by CAMP and Ca mediated agonists and thus is considered a secretory chloride channel.
# Chloride channels were incorporated into planar lipid bilayers of phosphatidylethanolamine and phosphatidylserine (PE:PS, 7:3) and data recorded according to known test methodology. See, Bridges et al., "Stilbene Disulfonate Blockade of Colonic Secretory Cl^- Channels in Planar Lipid Bilayers", Am. J. Physiol. 256 (Cell Physiol. 25): C902-C912, 1989. See also, Reinhardt et al. and Singh et al., supra.
# Once a chloride channel was incorporated into the bilayer, baseline (control) channel activity was recorded for 5-15 minutes. The calixarenes were then added to the cis or outer membrane side of the channel and the channel activity recorded for an additional 5-15 minutes at each concentration. Because each channel serves as its own control, calixarene effects could be uniquely identified. In some experiments the cis compartment was exchanged with calixarene-free solution to test the reversibility of the calixarene-induced effects. Single channel records were stored on video tape and quantitatively evaluated by computer assisted analysis.
# [1] = single channel in planar bilayer, Table 1, read-out: Ki (concentration causing a half-maximal inhibition)
SMILES,pKi (read-out: concentration causing a half maximal decrease (K1) in Po (percent time channel in open state)),pKi [1],K1 (suggested from brief open periods between long blocks) (estimate),MAXIMUM BLOCK PERIODS (block of channel),duration of the block periods [s],MAXIMUM BLOCK PERIODS (Table 1) [s],blocking the chloride channel (even at a concentration as high as 100 μM),"long-lived block periods, duration (at a concentration as low as 3 nM)"
"COc1c2cccc1Cc1cccc(c1OC)Cc1cccc(c1OC)Cc1cccc(c1OC)C2 [25,26,27,28-TETRAMETHOXY-CALIX[4]ARENE, reference compound]",–,–,–,NO BLOCK,–,–,–,–
"Oc1c2cccc1Cc1cccc(c1O)Cc1cccc(c1O)Cc1cccc(c1O)C2 [CALIX[4]ARENE, Calix[4]arene, reference compound]",–,–,–,NO BLOCK,–,–,completely ineffective,–
"COc1c2cc(S(=O)(=O)O)cc1Cc1cc(S(=O)(=O)O)cc(c1OC)Cc1cc(S(=O)(=O)O)cc(c1OC)Cc1cc(S(=O)(=O)O)cc(c1OC)C2 [5,11,17,23-tetrasulfonato-25,26,27,28-tetramethoxy-calix[4]arene]",–,> 8.52,subnanomolar,–,–,> 100,–,several hundred
"O=S(=O)(O)c1cc2c(O)c(c1)Cc1cc(S(=O)(=O)O)cc(c1O)Cc1cc(S(=O)(=O)O)cc(c1O)Cc1cc(S(=O)(=O)O)cc(c1O)Cc1cc(S(=O)(=O)O)cc(c1O)Cc1cc(S(=O)(=O)O)cc(c1O)Cc1cc(S(=O)(=O)O)cc(c1O)Cc1cc(S(=O)(=O)O)cc(c1O)C2 [5,11,17,23,29,35,41,47-octasulfonatocalix[8]arene]",–,> 7.30,–,–,> 100,> 100,–,–

# Continued, in another order:
pKi (read-out: concentration causing a half maximal decrease (K1) in Po (percent time channel in open state)),pKi [1],K1 (suggested from brief open periods between long blocks) (estimate),SMILES,MAXIMUM BLOCK PERIODS (block of channel),duration of the block periods [s],MAXIMUM BLOCK PERIODS (Table 1) [s],blocking the chloride channel (even at a concentration as high as 100 μM),"long-lived block periods, duration (at a concentration as low as 3 nM)"
> 6.00,6.05 to 6.10,–,"O=S(=O)(O)c1cc2c(O)c(c1)Cc1cc(S(=O)(=O)O)cc(c1O)Cc1cc(S(=O)(=O)O)cc(c1O)Cc1cc(S(=O)(=O)O)cc(c1O)C2 [5,11,17,23-TETRASULFONATO-CALIX[4]ARENE, 5,11,17,23-tetrasulfonato-calix[4]arene]",–,3 to 4,3 to 4,–,–
–,6.30 to 6.40,–,"O=S(=O)(O)c1cc2c(O)c(c1)Cc1cc(S(=O)(=O)O)cc(c1O)Cc1cc(S(=O)(=O)O)cc(c1O)Cc1cc(S(=O)(=O)O)cc(c1O)Cc1cc(S(=O)(=O)O)cc(c1O)Cc1cc(S(=O)(=O)O)cc(c1O)C2 [5,11,17,23,29,35-hexasulfonatocalix[6]arene]",–,30 to 40,30 to 40,–,–
